Results from US5925769A, “Acetylenic 1,5-diarylpyrazoles as antiinflammatory agents” (Ortho Pharmaceutical, Corp., priority 1998, dated 1999).

Experiments:
5-LO [1] = molecular target: T1, 5-LO (Rattus norvegicus, UniProt P12527); experiment: Procedure III: 5-LO (5-HETE) in intact RBL-1 cells; type: cell-based; conditions: calcium ionophore A 23187, read-out: Proc. III 5-LO IC50
T1 construct: the supernatant was saved as the source of enzymes; endogenous in cells; host or cells: RBL-1 (rat basophilic leukemia) cells
T1 sequence (P12527 1-673): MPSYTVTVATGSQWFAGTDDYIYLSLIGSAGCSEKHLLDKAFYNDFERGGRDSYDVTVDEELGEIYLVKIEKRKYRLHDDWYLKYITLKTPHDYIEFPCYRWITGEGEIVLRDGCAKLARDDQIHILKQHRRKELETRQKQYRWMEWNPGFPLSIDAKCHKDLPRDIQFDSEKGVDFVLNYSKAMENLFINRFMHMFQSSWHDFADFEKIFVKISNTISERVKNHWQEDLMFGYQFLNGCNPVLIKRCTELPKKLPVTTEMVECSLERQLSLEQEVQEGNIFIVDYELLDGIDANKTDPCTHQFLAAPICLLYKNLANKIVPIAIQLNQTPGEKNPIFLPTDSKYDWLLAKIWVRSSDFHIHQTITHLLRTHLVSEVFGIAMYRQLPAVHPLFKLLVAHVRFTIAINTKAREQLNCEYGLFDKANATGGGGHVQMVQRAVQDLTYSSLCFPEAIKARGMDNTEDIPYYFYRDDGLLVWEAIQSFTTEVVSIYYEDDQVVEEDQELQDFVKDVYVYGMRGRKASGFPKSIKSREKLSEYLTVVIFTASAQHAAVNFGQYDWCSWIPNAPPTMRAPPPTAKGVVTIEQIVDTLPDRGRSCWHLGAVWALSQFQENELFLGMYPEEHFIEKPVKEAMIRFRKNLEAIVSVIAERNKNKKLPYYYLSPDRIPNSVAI
Protocol: (§1) The IC50 was determined using a curve fit in Cricket Graph (Computer Associated), which provided the equation of the regressed line used in the calculation.
(§2) In Procedure III, the ability to inhibit 5-LO and CO in intact RBL-1 cells was also evaluated. […] Cells were collected by centrifugation, washed once in HBSS, and resuspended at a concentration of 1×10^5 cells/mL. Cells were incubated in the presence of vehicle or drug then centrifuged at 800×g for 10 minutes at 4° C. The supernatant was removed by aspiration and the cells were resuspended in 0.5 mL of HBSS. […] The conversion of AA to 5-LO products was initiated by the addition of 10 μL (50 μCi) of 1-^14 C-AA. Products were isolated by acidification and extraction, followed by thin layer chromatography analysis as described above. Radioactive areas corresponding to authentic 5-LO (5-HETE) and CO (PgD2) products were quantitated by the Bioscan 2000 Imaging System and the IC50 was calculated as above.

5-LO [2] = molecular target: T1, 5-LO; experiment: Procedure II: 5-LO activity (5-HETE) in broken RBL-1 cells (homogenate supernatant); type: biochemical; conditions: RBL-1 broken cell supernatant; for inhibition at 10 µM: 20 min, @ 10 .quadrature.M, read-out: Proc. II 5-LO % inhibition; for IC50: read-out: Proc. II 5-LO IC50
Protocol: (§3) Procedure II was used to assess LO and CO activity. Rat basophilic leukemia cells (RBL-1; 5×10^7 viable cells/mL) were disrupted by homogenization on ice (four 20 sec bursts) with a Brinkman polytron. […] The homogenate was then centrifuged at 9,220×g for 48 minutes at 4° C. The pellet was discarded and the supernatant was saved as the source of enzymes. The supernatant was pre-incubated for five minutes at 37° C. in the presence of 2 mM of CaCl2 and compound or vehicle (1% DMSO). The conversion of AA into products by CO and LO was initiated by adding 10 μL (50 μCi) of 1-^14 C-AA to each tube and incubated at 37° C. for 20 minutes. The reaction was stopped by adjusting the pH of each sample to 3 to 3.5 with 2M formic acid. Samples were extracted with three volumes of chloroform to isolate the products of 5-LO formed during the reaction. Fractions were dried under nitrogen, then resuspended in 40 μL of chloroform and spotted onto silica gel HL plates. The plates were developed in A-9 solvent. The dried plates were analyzed using a Bioscan Imaging TLC scanner to determine the percentage of radiolabelled AA converted to 5-HETE (LO product) in each sample. The percentage of inhibition was calculated by:
(§4) [1-(5-HETE test)]/5-HETE control×100=% inhibition
as §1

CO [3] = molecular target: T2, CO (Rattus norvegicus, UniProt Q63921); experiment: Procedure II: CO activity in broken RBL-1 cells (homogenate supernatant); type: biochemical; conditions: RBL-1 broken cell supernatant; for inhibition at 10 µM: 20 min, @ 10 .quadrature.M, read-out: Proc. II CO % inhibition; for IC50: read-out: Proc. II CO IC50
T2 construct: the supernatant was saved as the source of enzymes; endogenous in cells; host or cells: RBL-1 (rat basophilic leukemia) cells
T2 sequence (Q63921 27-602): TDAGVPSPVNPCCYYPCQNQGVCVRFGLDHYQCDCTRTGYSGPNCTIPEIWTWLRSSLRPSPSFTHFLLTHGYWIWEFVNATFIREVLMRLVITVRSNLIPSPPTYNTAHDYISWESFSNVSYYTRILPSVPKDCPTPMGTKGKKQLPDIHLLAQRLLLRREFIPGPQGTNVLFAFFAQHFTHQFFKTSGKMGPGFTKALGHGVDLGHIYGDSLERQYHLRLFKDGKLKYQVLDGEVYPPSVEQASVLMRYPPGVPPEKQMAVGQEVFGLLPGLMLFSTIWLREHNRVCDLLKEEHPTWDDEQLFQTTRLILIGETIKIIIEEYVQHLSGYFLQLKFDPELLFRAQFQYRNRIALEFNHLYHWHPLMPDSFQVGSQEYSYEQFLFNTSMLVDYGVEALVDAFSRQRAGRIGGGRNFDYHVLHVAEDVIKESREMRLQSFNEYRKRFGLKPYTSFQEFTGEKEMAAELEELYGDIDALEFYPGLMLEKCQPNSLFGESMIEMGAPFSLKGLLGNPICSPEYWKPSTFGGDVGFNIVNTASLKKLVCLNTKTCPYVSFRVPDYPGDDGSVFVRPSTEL
Protocol: as §3, §4, §1

[4] = molecular target: T3, Sheep seminal vesicle (SSV) cyclooxygenase (Ovis aries, UniProt P05979); experiment: Procedure I: inhibition of sheep seminal vesicle (SSV) cyclooxygenase; type: biochemical; conditions: SSV cyclooxygenase; for inhibition at 10 µM: 20 min, @ 10 .quadrature.M, read-out: Proc. I % inhibition; for IC50: read-out: Proc. I IC50
T3 construct: Sheep seminal vesicle (SSV) cyclooxygenase (95% pure); purchased Biomol (Plymouth Meeting, PA); host or cells: sheep seminal vesicle
T3 sequence (P05979 25-600): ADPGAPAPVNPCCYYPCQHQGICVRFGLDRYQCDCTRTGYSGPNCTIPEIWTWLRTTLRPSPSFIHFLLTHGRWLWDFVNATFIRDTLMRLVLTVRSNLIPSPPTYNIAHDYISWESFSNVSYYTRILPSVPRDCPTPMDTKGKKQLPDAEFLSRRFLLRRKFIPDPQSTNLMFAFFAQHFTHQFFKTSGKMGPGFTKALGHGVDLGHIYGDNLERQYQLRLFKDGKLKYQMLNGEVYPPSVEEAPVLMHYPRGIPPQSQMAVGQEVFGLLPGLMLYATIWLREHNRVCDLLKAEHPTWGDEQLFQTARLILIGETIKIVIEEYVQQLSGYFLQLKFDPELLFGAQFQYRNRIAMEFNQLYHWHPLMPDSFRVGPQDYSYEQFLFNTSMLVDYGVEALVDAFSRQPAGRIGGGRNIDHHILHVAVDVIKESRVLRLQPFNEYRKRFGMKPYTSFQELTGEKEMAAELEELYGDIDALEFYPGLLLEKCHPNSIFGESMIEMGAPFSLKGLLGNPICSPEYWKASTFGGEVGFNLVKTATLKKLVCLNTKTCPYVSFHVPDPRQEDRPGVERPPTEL
Protocol: Procedure I was used to determine the ability of the compounds to inhibit cyclooxygenase. […] The enzyme was divided into 200 μL aliquots, snap frozen with liquid N2, and stored at -70° C. until immediately prior to use. […] The tubes were mixed on a vortex shaker, preincubated for 5 min at 37° C. prior to the initiation of the reaction. The reaction was started by the addition of [^14 C]-arachidonic acid (1-^14 C-AA, Amersham, Arlington Heights, Ill.) in 10 μL of methanol. Tubes were again vortexed and incubated in a water bath for 20 minutes after which the tubes were removed and the reaction stopped by acidification with the addition of 1 mL 2M formic acid. Lipophilic products were extracted with 3 mL chloroform and concentrated to dryness under N2. Each pellet was reconstituted with 40 μL of chloroform and spotted on a Whatman Silicon thin-layer chromatography plate and developed in a chromatography tank containing A-9 solvent (11:5:2:1 V:V:VV, ethyl acetate:trimethyl-pentane:acetic acid:double distilled-H2 O). Radioactive cyclooxygenase products (prostaglandin D2, prostaglandin E2, etc.) were measured using a Bioscan System 200 Imaging Scanner. Inhibition of enzyme activity was calculated by comparing the areas under the curve produced in the presence or absence of test compound.

CO [5] = molecular target: T2, CO; experiment: Procedure III: CO (PgD2) in intact RBL-1 cells; type: cell-based; conditions: calcium ionophore A 23187, read-out: Proc. III CO IC50
Protocol: as §1, §2

| Compound | IC50 (5-LO [1]) | inhibition at 10 µM (5-LO [2]) | inhibition at 10 µM (CO [3]) | inhibition at 10 µM [4] | IC50 (CO [5]) | IC50 [4] | IC50 (5-LO [2]) | IC50 (CO [3]) |
| --- | --- | --- | --- | --- | --- | --- | --- | --- |
| CCC(C#Cc1cc(-c2ccc(C)cc2)n(-c2ccc(OC)cc2)n1)N(O)C(C)=O (stereo not shown) [Cpd 28, N-acetyl-N-(1-(1-(4-methoxyphenyl)-5-(4-methylphenyl)pyrazol-3-yl)-1-pentyn-3-yl)hydroxylamine] | 10700 nM | – | – | – | 220 nM | 430 nM | 70 nM | 10 nM |
| CCC(C#Cc1cc(-c2ccc(Cl)cc2)n(-c2ccc(OC)cc2)n1)N(O)C(N)=O (stereo not shown) [Cpd 11] | 2170 nM | 91% | 30% | 0% | 70400 nM | – | – | – |
| COC(=O)N(O)C(C)C#Cc1cc(-c2ccc(C)cc2)n(-c2ccc(OC)cc2)n1 (stereo not shown) [Cpd 27] | 7100 nM | – | – | – | 490 nM | 530 nM | 280 nM | 140 nM |
| CCc1ccc(-c2cc(C#CC(C)N(O)C(=O)CCl)nn2-c2ccc(OC)cc2)cc1 (stereo not shown) [Cpd 31] | 36800 nM | 100% | 86% | – | 1700 nM | 6100 nM | – | – |
| COc1ccc(-n2nc(C#CC(C)N(O)C(=O)N3CCOCC3)cc2-c2ccc(Cl)cc2)cc1 (stereo not shown) [Cpd 10] | 12000 nM | 81% | 58% | 14% | 1600 nM | – | – | – |

Continued, values first:

| IC50 (5-LO [1]) | inhibition at 10 µM (5-LO [2]) | inhibition at 10 µM (CO [3]) | inhibition at 10 µM [4] | IC50 (CO [5]) | IC50 [4] | IC50 (5-LO [2]) | IC50 (CO [3]) | Compound |
| --- | --- | --- | --- | --- | --- | --- | --- | --- |
| 26600 nM | 89% | 66% | 17% | 5500 nM | – | – | – | COc1ccc(-n2nc(C#CCN(O)C(=O)c3ccncc3)cc2-c2ccc(C)cc2)cc1 [Cpd 16] |
| 38700 nM | 67% | 13% | – | 3600 nM | 10000 nM | – | – | COc1ccc(-n2nc(C#CC(C)N(O)C(=O)Cn3ccnc3)cc2-c2ccc(C)cc2)cc1 (stereo not shown) [Cpd 43, N-(imidazol-1-yl)acetyl-N-(1-(1-(4-methoxyphenyl)-5-(4-methylphenyl)pyrazol-3-yl)-1-butyn-3-yl)hydroxylamine] |
| 7200 nM | 100% | 100% | 74% | 30 nM | – | – | – | COc1ccc(-n2nc(C#CCN(O)C(C)=O)cc2-c2ccc(C)cc2)cc1 [Cpd 13, N-acetyl-N-(1-(1-(4-methoxyphenyl)-5-(4-methylphenyl)pyrazol-3-yl)-1-propyn-3-yl)hydroxylamine] |
| 3000 nM | 100% | 100% | 79% | 60 nM | – | – | – | CCC(=O)N(O)CC#Cc1cc(-c2ccc(C)cc2)n(-c2ccc(OC)cc2)n1 [Cpd 14] |
| 23600 nM | 100% | 100% | – | 360 nM | 1200 nM | – | – | COc1ccc(-n2nc(C#CC(C)N(O)C(=O)CCl)cc2-c2ccc(C)cc2)cc1 (stereo not shown) [Cpd 21, N-Chloroacetyl-N-(1-(1-(4-methoxyphenyl)-5-(4-methylphenyl)pyrazol-3-yl)-1-butyn-3-yl)hydroxylamine] |
| 7700 nM | – | – | 10% | 1400 nM | – | 370 nM | 9400 nM | COc1ccc(-n2nc(C#CC(C)N(O)C(N)=O)cc2-c2ccc(C)cc2)cc1 (stereo not shown) [Cpd 2, N-hydroxy-N-(1-(1-(4-methoxyphenyl)-5-(4-methylphenyl)pyrazol-3-yl)-1-butyn-3-yl)urea] |
